In PMC10033419, “Blocking NS3–NS4B interaction inhibits dengue virus in non-human primates” (Nature, 2023):
“And” between values parts separate entries of the source, which are not always exact repeats. Equal values may be shown once. Read-outs that look alike come from different tables or passages of the source.

Legend:
[1] = system: DENV-4/703/4; assay: Viraemia/survival study; type: in vivo, AG129 mice; conditions: for Viral RNA copies/mL [Log10]: Fig. 2k Viraemia DENV-4, BID, individual animals 1-5, LOD is 1.7
Description: (§1) The UTMB is an Association for the Assessment and Accreditation of Laboratory and Care (AAALAC) International accredited facility. All of the procedures were reviewed and approved by the UTMB Institutional Animal Care and Use Committee. […] Male and female AG129 mice (n = 10 per group; aged 6–8 weeks) were housed at a maximum of 5 mice per cage in individually ventilated cages with food and water provided ad libitum. Allocation to experimental groups was performed randomly. […] Approximately 1 h after the first treatment, all of the animals were challenged by i.p. injection with 10^7 PFU DENV-1/West Pac, DENV-3/C0360/94 or DENV-4/703/4. Pretreatment with anti-flavivirus antibody 4G2 to increase disease severity by induction of ADE was not required as infection with DENV-1/West Pac, DENV-3/C0360/94 or DENV-4/703/4 in our models leads to severe disease (requiring euthanasia after >20% loss of body weight). Each treatment group was subdivided into two smaller groups (groups A and B; n = 5 each). Blood was collected on day 3 after infection from group A to measure viral RNA; samples were collected by retro-orbital bleed on day 3 after infection around 30 min before the morning treatment. In parallel, animals (groups A and B) were followed for lethality throughout the experiment. Viral RNA isolation from plasma and RT–qPCR analysis was performed using the methods described previously.
(§2) For the viral kinetics studies and the delayed-treatment studies, a batch approach was applied to calculate the viral load AUC using the PΚ R package. This package estimates a mean AUC value for settings in which the animals are measured at varying timepoints within a treatment group. […] The AUC was calculated using the LOD (2.6 log10 copies per ml) as the lowest limit. […] In the delayed-treatment studies, the total viral load AUC for each of the compound-treated groups was calculated and compared with that of the vehicle-treated group. […] P values were adjusted using the Bonferroni multiple-comparison correction method. Note that P values lower than 0.0001 were rounded to 0.0001. For survival studies of DENV-1-, DENV-3- or DENV-4-infected mice, Fisher’s exact tests were used on day 6. P values were adjusted using the Bonferroni multiple-comparison correction method.

[2] = system: DENV-1/West Pac; assay: Viraemia/survival study; type: in vivo, AG129 mice; conditions: for Viral RNA copies/mL [Log10]: Fig. 2i Viraemia DENV-1, BID, individual animals 1-5, LOD is 1.7
Description: as §1, §2

[3] = system: DENV-3/C0360/94; assay: Viraemia/survival study; type: in vivo, AG129 mice; conditions: for Viral RNA copies/mL [Log10]: Fig. 2j Viraemia DENV-3, BID, individual animals 1-5, LOD is 1.7
Description: as §1, §2

[4] = system: DENV-2 Cosmopolitan France - Toulon; assay: microbe, parasite or virus in culture; type: cell-based; conditions: Dengue virus, DENV2, Vero C1008
Description: (§3) A total of 20 DENV strains, representing the available genotypes within the four DENV serotypes, were used in the in vitro genotype panel, from which 19 viruses were described previously in ref. [3] and one additional virus, DENV-1/45AZ5 (ref. [54]), was added.
(§4) A potential toxic effect on host cells was tested in parallel, while omitting virus infection, using the MTS/PMS method (Promega) for Vero cells, or by high-content imaging for C6/36 cells, as described previously. […] RT–qPCR data were analysed using the QuantStudio 12K Flex software (v.1.2.3) or SDS v.1.2 Applied Biosystems software. Inhibition values for antiviral molecules were plotted using KaleidaGraph plotting software (v.4.03, Synergy Software).

[5] = system: DENV-2 Asian II Papua New Guinea; assay: microbe, parasite or virus in culture; type: cell-based; conditions: Dengue virus, DENV2, Vero C1008
Description: as §3, §4

[6] = system: DENV-4 G1 India; assay: microbe, parasite or virus in culture; type: cell-based; conditions: Dengue virus, DENV4, Vero C1008
Description: as §3, §4

[7] = MTS/PMS toxicity assay; type: cell-based, African green monkey; conditions: African green monkey, Vero cells
Description: as §4

[8] = system: Vero cells; assay: MTS/PMS toxicity assay; type: cell-based, African green monkey; conditions: EXP1-EXP3, read-out: CC50, single experiments
Description: as §4

[9] = system: DENV-2/16681/eGFP; assay: microbe, parasite or virus in culture; type: cell-based; conditions: Dengue virus
[10] = system: DENV-2 Asian America Martinique; type: cell-based; conditions: T108I in NS4B
[11] = 60 or 6 mg per kg per day b.i.d.
[12] = 60 or 6 mg per kg per day b.i.d., vehicle 0%
[13] = two of three values below threshold

COc1cc(N[C@H](C(=O)c2c[nH]c3ccc(OC(F)(F)F)cc23)c2ccc(Cl)cc2OC)cc(S(C)(=O)=O)c1 [JNJ-1802]
viral RNA load day 3 vs vehicle [1, 11]: significantly reduced
survival until day 6 [1, 12]: 100%
Survival [%] ([1]; DENV-4, 6 mg/kg/day BID, day 0 post-infection): 100%
Survival [%] ([1]; DENV-4, 6 mg/kg/day BID, day 1 post-infection): 100%
Survival [%] ([1]; DENV-4, 6 mg/kg/day BID, day 2 post-infection): 100%
Survival [%] ([1]; DENV-4, 6 mg/kg/day BID, day 3 post-infection): 100%
Survival [%] ([1]; DENV-4, 6 mg/kg/day BID, day 4 post-infection): 100%
Survival [%] ([1]; DENV-4, 6 mg/kg/day BID, day 5 post-infection): 100%
Survival [%] ([1]; DENV-4, 6 mg/kg/day BID, day 6 post-infection): 100%
Survival [%] ([1]; DENV-4, 60 mg/kg/day BID, day 0 post-infection): 100%
Survival [%] ([1]; DENV-4, 60 mg/kg/day BID, day 1 post-infection): 100%
Survival [%] ([1]; DENV-4, 60 mg/kg/day BID, day 2 post-infection): 100%
Survival [%] ([1]; DENV-4, 60 mg/kg/day BID, day 3 post-infection): 100%
Survival [%] ([1]; DENV-4, 60 mg/kg/day BID, day 4 post-infection): 100%
Survival [%] ([1]; DENV-4, 60 mg/kg/day BID, day 5 post-infection): 100%
Survival [%] ([1]; DENV-4, 60 mg/kg/day BID, day 6 post-infection): 100%
Viral RNA copies/mL [Log10] ([1]; 6 mg/kg/day): 1.7 copies/mL [Log10] and 4.048 copies/mL [Log10] and 3.88 copies/mL [Log10]
Viral RNA copies/mL [Log10] ([1]; 60 mg/kg/day): 1.7 copies/mL [Log10]
viral RNA load day 3 vs vehicle [2, 11]: significantly reduced
survival until day 6 ([2]; 60 or 6 mg per kg per day b.i.d., vehicle 20%): 100%
Survival [%] ([2]; DENV-1, 6 mg/kg/day BID, day 0 post-infection): 100%
Survival [%] ([2]; DENV-1, 6 mg/kg/day BID, day 1 post-infection): 100%
Survival [%] ([2]; DENV-1, 6 mg/kg/day BID, day 2 post-infection): 100%
Survival [%] ([2]; DENV-1, 6 mg/kg/day BID, day 3 post-infection): 100%
Survival [%] ([2]; DENV-1, 6 mg/kg/day BID, day 4 post-infection): 100%
Survival [%] ([2]; DENV-1, 6 mg/kg/day BID, day 5 post-infection): 100%
Survival [%] ([2]; DENV-1, 6 mg/kg/day BID, day 6 post-infection): 100%
Survival [%] ([2]; DENV-1, 60 mg/kg/day BID, day 0 post-infection): 100%
Survival [%] ([2]; DENV-1, 60 mg/kg/day BID, day 1 post-infection): 100%
Survival [%] ([2]; DENV-1, 60 mg/kg/day BID, day 2 post-infection): 100%
Survival [%] ([2]; DENV-1, 60 mg/kg/day BID, day 3 post-infection): 100%
Survival [%] ([2]; DENV-1, 60 mg/kg/day BID, day 4 post-infection): 100%
Survival [%] ([2]; DENV-1, 60 mg/kg/day BID, day 5 post-infection): 100%
Survival [%] ([2]; DENV-1, 60 mg/kg/day BID, day 6 post-infection): 100%
Viral RNA copies/mL [Log10] ([2]; 6 mg/kg/day): 6.011 copies/mL [Log10] and 6.0187 copies/mL [Log10] and 7.037 copies/mL [Log10] and 6.709 copies/mL [Log10] and 6.244 copies/mL [Log10]
Viral RNA copies/mL [Log10] ([2]; 60 mg/kg/day): 4.624 copies/mL [Log10] and 4.061 copies/mL [Log10] and 4.479 copies/mL [Log10] and 4.465 copies/mL [Log10] and 4.103 copies/mL [Log10]
viral RNA load day 3 vs vehicle [3, 11]: significantly reduced
survival until day 6 [3, 12]: 100%
Survival [%] ([3]; DENV-3, 6 mg/kg/day BID, day 0 post-infection): 100%
Survival [%] ([3]; DENV-3, 6 mg/kg/day BID, day 1 post-infection): 100%
Survival [%] ([3]; DENV-3, 6 mg/kg/day BID, day 2 post-infection): 100%
Survival [%] ([3]; DENV-3, 6 mg/kg/day BID, day 3 post-infection): 100%
Survival [%] ([3]; DENV-3, 6 mg/kg/day BID, day 4 post-infection): 100%
Survival [%] ([3]; DENV-3, 6 mg/kg/day BID, day 5 post-infection): 100%
Survival [%] ([3]; DENV-3, 6 mg/kg/day BID, day 6 post-infection): 100%
Survival [%] ([3]; DENV-3, 60 mg/kg/day BID, day 0 post-infection): 100%
Survival [%] ([3]; DENV-3, 60 mg/kg/day BID, day 1 post-infection): 100%
Survival [%] ([3]; DENV-3, 60 mg/kg/day BID, day 2 post-infection): 100%
Survival [%] ([3]; DENV-3, 60 mg/kg/day BID, day 3 post-infection): 100%
Survival [%] ([3]; DENV-3, 60 mg/kg/day BID, day 4 post-infection): 100%
Survival [%] ([3]; DENV-3, 60 mg/kg/day BID, day 5 post-infection): 100%
Survival [%] ([3]; DENV-3, 60 mg/kg/day BID, day 6 post-infection): 100%
Viral RNA copies/mL [Log10] ([3]; 6 mg/kg/day): 1.7 copies/mL [Log10] and 2.037 copies/mL [Log10] and 2.373 copies/mL [Log10]
Viral RNA copies/mL [Log10] ([3]; 60 mg/kg/day): 1.7 copies/mL [Log10]
EC90 ([4]; one of three values below threshold): 0.28 nM
EC50 [4, 13]: < 0.0443 nM
EC90 [5]: 0.19 ± 0.1 nM
EC50 ([5]; two of two values below threshold): < 0.04 nM
EC90 [6]: 0.762 ± 0.095 nM
EC50 [6, 13]: < 0.09 nM
CC50 ([7]; EXP1-EXP3, read-out: CC50, single experiments): 2770 nM
CC50 ([7]; Vero, read-out: CC50): > 2260 nM
CC50 ([7]; mean, read-out: CC50 MEAN): > 2300 nM
CC50 ([7]; median, read-out: CC50 MEDIAN): > 2000 nM
CC50 [8]: > 2000 nM
EC50 ([9]; DENV2, THP-1, THP-1/DC-SIGN, read-out: EC50): 0.173 ± 0.043 nM
EC90 ([9]; DENV2, THP-1, THP-1/DC-SIGN, read-out: EC90): 0.283 ± 0.056 nM
EC50 ([9]; DENV2, THP-1, read-out: EC50, individual data): 0.2 nM
EC90 ([9]; DENV2, THP-1, read-out: EC90, individual data): 0.25 nM
EC50 [10]: 0.8 ± 0.7 nM
EC90 [10]: 1.88 ± 1.37 nM
